One compound from US20200390100A1, “SUBSTITUTED N-HETEROCYCLYL- AND N-HETEROARYL-TETRAHYDROPYRIMIDINONES AND THE SALTS THEREOF, AND THE USE OF SAME AS HERBICIDAL ACTIVE SUBSTANCES” (Bayer Aktiengesellschaft, priority 2017, published 2020) can be followed below.

The target of this assay is T1, photosystem II (PS II) (Spinacia oleracea, UniProt P69560).
T1 construct: the chloroplasts were osmotically ruptured and the thylakoid membranes were then obtained by centrifugation; from tissue; host or cells: fresh spinach leaves; thylakoid membrane preparation from isolated chloroplasts
Put plainly: Measurement of PS II activity in thylakoid membranes (DCPIP reduction). In kind it is biochemical, spinach. The note with it: PS II activity in spinach thylakoid membranes, Table E1; read-out: Effect. In outline: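 Thylakoid membranes from osmotically ruptured spinach chloroplasts in 50 mM phosphate pH 6.8, 10 mM KCl; compounds added from 100 μM DMSO solution (2.5% DMSO final), 120 μM DCPIP final. DCPIP reduction under light tracked as absorbance decrease at 595 nm over 10 min at 22 °C; % inhibition binned, metribuzin as plate standard.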

`CC1CC(O)N(c2cc(C(C)(C)C)on2)C(=O)N1C` (stereo not shown) [I.41-162, 1-(5-tert-Butyl-1,2-oxazol-3-yl)-6-hydroxy-3,4-dimethyltetrahydropyrimidin-2(1H)-one]: the inhibition at 100 µM fell in the range of 70 to 90%.
